This is an account of results in PubChem BioAssay (NCI).

Assay in all cases: inhibition of tumour cell growth, NCI panel, 48 h
Experiment [1] has as its system A549 NSCLC.
Experiment [2] has as its system CCRF-CEM leukemia.
The subject of experiment [3] is COLO 205 colon.
Experiment [4] concerns EKVX NSCLC.
Experiment [5] concerns HCT-15 colon.
Experiment [6] has as its system MOLT-4 leukemia.
Experiment [7] relates to NCI-H226 lung.
Experiment [8] concerns NCI-H23 lung.
For experiment [9], the system named is OVCAR-3 ovarian.
The subject of experiment [10] is SF-539 CNS.
In experiment [11] the test system is UO-31 renal.

The structures appear in SMILES notation.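 48-hour exposure; five concentrations; linearly interpolated endpoints. TGI denotes the concentration required for complete inhibition of growth.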

For `CC(=O)OCC1OC(n2cnc3nc(Br)[nH]c(=O)c32)C(OC(C)=O)C1OC(C)=O` (stereo not drawn), the TGI in [1], in experiment [2], in experiment [3], in experiment [4], in experiment [5] and in experiment [6] was above 100 µM in each case. Moreover, the TGI in [7], in experiment [8], in experiment [9], in experiment [10] and in [11] was above 100 µM in each case.

Take `CN(C)Cc1c(O)ccc2c1c1c(n2C)C(=O)c2ccccc2C1=O`: the TGI in experiment [1] was above 100 µM; in experiment [2], above 100 µM; in experiment [3], 40 µM; in experiment [4], above 100 µM; in [5] it was above 100 µM; in [6], above 100 µM. In addition, the TGI is 38.1 µM in experiment [7]; 27.4 µM in [8]; 48.4 µM in [9]; above 100 µM in experiment [10]; 37.5 µM in [11].

For the compound `COc1cccc2c1NC(=O)Cc1c-2[nH]c2ccccc12`, the TGI in experiment [1], in [2], in experiment [3], in experiment [4], in experiment [5] and in experiment [6] was above 100 µM throughout. The TGI in [7], in [8], in experiment [9], in experiment [10] and in [11] was above 100 µM throughout.

On to `Cc1ncc([N+](=O)[O-])n1CC[N+](C)([O-])CCCCn1ccnc1[N+](=O)[O-]` (stereo not drawn), for which the TGI in experiment [1], in experiment [2], in experiment [3], in experiment [4], in experiment [5] and in experiment [6] was above 100 µM each time. In addition, the TGI in experiment [7], in [8], in [9], in experiment [10] and in [11] was above 100 µM throughout.

Turning to `COC(=O)CNC(=O)C(Cc1ccccc1)NC(=O)c1ccc(-c2ccc(Cl)cc2Cl)o1` (stereo not drawn), the TGI in experiment [1] was above 100 µM; in experiment [2], 39.5 µM; in [3], 30.2 µM; in experiment [4] it was 78.6 µM; in [5], 89.4 µM; in experiment [6], 49.2 µM. Moreover, the TGI was above 100 µM in experiment [7]; above 100 µM in experiment [8]; 72.5 µM in experiment [9]; above 100 µM in [10]; above 100 µM in [11].

Regarding `COC(=O)Nc1nc2ccc(S(=O)(=O)Nc3ccccn3)cc2[nH]1`, the TGI in experiment [1] is above 100 µM; in experiment [2] it was 54.2 µM; in [3] it was above 100 µM; in experiment [4], above 100 µM; in experiment [5], above 100 µM; in [6], 64 µM. Also, the TGI in experiment [7] is above 100 µM; in experiment [8], above 100 µM; in [9], above 100 µM; in experiment [10], 52.6 µM; in [11] it was above 100 µM.

Consider `CC(C)(C)COC(=O)C(C)(C)NC(=O)C(CC(=O)OCc1ccccc1)NC(=O)OCc1ccccc1` (stereo not drawn), for which the TGI was above 100 µM in [1]; above 100 µM in experiment [2]; 44 µM in experiment [3]; above 100 µM in experiment [4]; 69.1 µM in experiment [5]; above 100 µM in experiment [6]. Further, the TGI in experiment [7] is 85.2 µM; in experiment [8], above 100 µM; in [9] it was above 100 µM; in experiment [10], above 100 µM; in experiment [11], 70.7 µM.

For `CN1C(=O)CC2(C)c3cc(O)cc(Br)c3N(C)C12` (stereo not drawn), the TGI in [1], in experiment [2], in [3], in [4], in experiment [5] and in [6] was above 100 µM throughout. In addition, the TGI in experiment [7], in experiment [8], in [9], in experiment [10] and in [11] was above 100 µM in each case.

`C=C(C)[C@@H](O)[C@H](O)C[C@H](C)C1CC[C@]2(C)C1=CC[C@@H]1[C@@]3(C)CC[C@@H](OC(C)=O)C(C)(C)[C@@H]3C[C@@H](OC3OC(COC(C)=O)C(O)C(O)C3O)[C@]12C` (stereo partly drawn): the TGI in experiment [1] came out at 12.2 µM; in [2], 5.95 µM; in experiment [3] it was 3.39 µM; in experiment [4], 12.3 µM; in experiment [5], 11.7 µM; in experiment [6] it was 4.5 µM. Also, the TGI was 10.3 µM in [7]; 16.1 µM in experiment [8]; 4.79 µM in [9]; 11.7 µM in experiment [10]; 12.4 µM in [11].

For `Oc1c(CN2CCCC2)ccc2cccnc12`, the TGI is above 100 µM in experiment [1]; above 73.6 µM in [2]; 71.5 µM in [3]; above 100 µM in experiment [4]; above 41.2 µM in experiment [5]; above 100 µM in experiment [6]. Moreover, the TGI in experiment [7] was above 64 µM; in experiment [8] it was 99.6 µM; in experiment [9] it was above 82.7 µM; in experiment [10], above 78.5 µM; in [11] it was 14.1 µM.

Consider `Cc1ccc(S(=O)(=O)N2CCC[C@@H]2C(=O)O[C@@H]2CCC3CC=CC32)cc1` (stereo partly drawn), for which the TGI in experiment [1] was above 100 µM; in experiment [2], above 100 µM; in experiment [3], 31.2 µM; in [4] it was above 100 µM; in experiment [5], above 100 µM; in experiment [6], above 100 µM. Moreover, the TGI was 68.3 µM in [7]; above 100 µM in experiment [8]; 38.8 µM in experiment [9]; above 100 µM in experiment [10]; 41.5 µM in experiment [11].

As to `CC(=O)c1ccccc1NC(=O)C(=O)C(C(=O)c1ccc2ccccc2c1)C1OC(=O)c2ccccc21` (stereo not drawn), the TGI was 70.5 µM in [1]; 40 µM in experiment [2]; 30.2 µM in experiment [3]; above 100 µM in experiment [4]; 40.1 µM in [5]; above 100 µM in [6]. Besides, the TGI in [7] was 7.86 µM; in [8], 26.8 µM; in experiment [9], 54.3 µM; in experiment [10], 22.1 µM; in experiment [11], 29.1 µM.

Consider `CSc1ncc2c(n1)-c1ccccc1OC2N1CCOCC1` (stereo not drawn), for which the TGI in [1], in experiment [2], in experiment [3], in experiment [4], in [5] and in experiment [6] was above 100 µM in each case. Also, the TGI in [7], in experiment [8], in experiment [9], in [10] and in [11] was above 100 µM throughout.

`CC[C@@]1(O)C[C@H](OC2CC(N(C)C)C(O)C(C)O2)c2c(cc3c(c2O)C(=O)c2c(O)ccc(O)c2C3=O)[C@H]1C(=O)OC` (stereo partly drawn): the TGI worked out at 1.36 µM in experiment [1]; 0.603 µM in experiment [2]; 0.359 µM in experiment [3]; 0.526 µM in experiment [4]; 0.976 µM in [5]; 0.192 µM in experiment [6]. Besides, the TGI in experiment [7] came out at 0.455 µM; in experiment [8], 0.599 µM; in experiment [9], 0.924 µM; in experiment [10], 0.41 µM; in experiment [11], 1 µM.

As for `COc1ccc(-n2c(SC(CN3CCOCC3)CN3CCCC3=O)nc3ccccc3c2=O)cc1` (stereo not drawn), the TGI in experiment [1], in experiment [2], in [3], in [4], in experiment [5] and in [6] was above 100 µM throughout. Also, the TGI in experiment [7], in experiment [8], in [9], in experiment [10] and in [11] was above 100 µM throughout.

With `O=C1/C(=C/c2ccc(O)cc2)CCCC1CN1CCCCC1` (stereo not drawn), the TGI is 31.9 µM in [1]; above 100 µM in [2]; 4.02 µM in [3]; 7.8 µM in experiment [4]; 2.71 µM in experiment [5]; 4.82 µM in experiment [6]. The TGI came out at 18.2 µM in experiment [7]; 11.8 µM in [8]; 14.9 µM in experiment [9]; 8.45 µM in experiment [10]; 5.88 µM in experiment [11].

On to `Cn1c(-c2ccc[se]2)ccc1-c1ccc(C=O)[se]1`, for which the TGI in experiment [1] was above 100 µM; in [2] it was 14.1 µM; in experiment [3], above 49.4 µM; in experiment [4] it was above 100 µM; in [5] it was above 100 µM; in experiment [6] it was above 100 µM. The TGI in experiment [7] was 2.3 µM; in experiment [8], 48.9 µM; in experiment [9], 5.71 µM; in experiment [10], 23 µM; in experiment [11] it was above 100 µM.

`Cn1cnc(N2CCCC2)c(C#N)c1=S`: the TGI in experiment [1], in experiment [2], in experiment [3], in experiment [4], in [5] and in [6] was above 100 µM in each case. Also, the TGI is above 100 µM in experiment [7]; above 100 µM in [8]; above 100 µM in experiment [9]; above 100 µM in experiment [10]; 70.3 µM in [11].
